Among the data in ChEMBL document CHEMBL4480398, “1,2,4-Triazolo[1,5-a]pyrimidines in drug design” (Eur J Med Chem, 2019) are MIC values, retold here.

Common to all, as to assay type: functional
In test [1] the test system is Mycobacterium tuberculosis. Nature of the test: Antibacterial activity against multidrug-resistant Mycobacterium tuberculosis P887 after 9 days by inverted microscopic analysis. To be noted: P887, 216 h.
Test [2] concerns Mycobacterium tuberculosis. Nature of the test: Antibacterial activity against multidrug-resistant Mycobacterium tuberculosis M23 after 9 days by inverted microscopic analysis. To be noted: M23, 216 h.
Test [3] concerns Mycobacterium tuberculosis. The test is described as follows: Antibacterial activity against extensively drug resistant Mycobacterium tuberculosis X24 after 9 days by inverted microscopic analysis. To be noted: X24, 216 h.
Test [4] deals with Mycobacterium tuberculosis. Nature of the test: Antibacterial activity against multidrug-resistant Mycobacterium tuberculosis M22 after 9 days by inverted microscopic analysis. To be noted: M22, 216 h.
The subject of test [5] is Mycobacterium tuberculosis. The test is described as follows: Antibacterial activity against extensively drug resistant Mycobacterium tuberculosis X59 after 9 days by inverted microscopic analysis. To be noted: X59, 216 h.

The structures appear in SMILES notation. ≈ marks a conversion by molar mass, not a printed value.

With `Cc1ccn2nc(S(=O)(=O)Nc3c(Br)ccc4cccnc34)nc2n1`, the minimal inhibitory concentration (MIC) in test [1], in test [2], in test [3], in test [4] and in test [5] was 0.5 µM (≈ 0.21 µg/mL) each time.
For the compound `Cc1nc2nc(S(=O)(=O)Nc3c(Br)ccc4cccnc34)nn2c2c1CCC2`, the minimum inhibitory concentration (MIC) in test [1], in test [2], in test [3], in test [4] and in test [5] was 2 µM (≈ 0.919 µg/mL) in each case.

For orientation: MIC means the least concentration at which growth counts as inhibited. Low values mean greater potency, high ones weaker potency.
